Measurements reported in US7202239B2, “Cyclohexylphenyl carboxamides tocolytic oxytocin receptor antagonists” (Wyeth, priority 2001, dated 2007).

Each molecule was assayed against human V2 vasopressin receptor subtype (Homo sapiens, UniProt P30518) (assay: Vasopressin binding in CHO cell membranes expressing human vasopressin V2 subtype receptors). Settings: 100 nM, [3H]arginine vasopressin.
Description: Vasopressin Binding in Chinese Hamster Ovary Cell Membranes Expressing Human Vasopressin V2 Subtype Receptors
Chinese Hamster Ovary (CHO) cells stably transfected with the human V2 subtype receptors were obtained from M. Thibonnier, Case Western Reserve University School of Medicine, Cleveland, Ohio.
A. Passaging and Amplification of Cells:
CHO cells transfected with the human vasopressin V2 subtype receptors obtained from M. Thibonnier (pZeoSV vector) are allowed to grow to confluency (approx. >90%) in T-150 flasks under sterile conditions, in a cell culture medium of F-12 Nutrient Mixture (HAM) with L-glutamine (Gibco Cat. # 11765-054) containing 15 mM HEPES (Gibco Cat. # 15630-080), 1% antibiotic/antimycotic (add 5 mL 100×, Gibco Cat. # 15240-062 per 500 mL F-12), 250 μg/mL Zeocin (add 1.25 mL of 100 mg/mL Invitrogen R-250-01 per 500 mL F-12) and 10% Fetal Bovine Serum (Qualified, heat inactivated, Gibco Cat. # 16140-063). The medium is removed by aspiration and the cells washed with 10 mL of Hank's Balanced Salt solution (Gibco Cat. # 14175-095). The salt solution is removed by aspiration and the cells trypsinized with 5 mL of trypsin-EDTA (0.05% trypsin, 0.53 mM EDTA-4Na, Gibco Cat. # 25300-070) for 1 min. The trypsin is removed by aspiration and the cells dislodged by tapping. Cell Culture medium (e.g. 30 mL for 1:30 split) is immediately added and mixed well to inactivate trypsin. 1 mL of detached cells is added to new culture flasks containing fresh Cell Culture medium (e.g. into 25 mL per T-150 flask), and mixed gently. The cells are incubated at 37° C. in 5% CO2. The medium is changed at 3 to 4 day interval (or as appropriate). The cells grow to confluency (approx. >75%–95%) within 7–8 days. All steps are done under sterile conditions. B. Membrane Preparation: The cells are washed twice gently with Hank's Balanced Salt solution (e.g. use 10 mL per T-150 flask). The excess solution is removed and the cells bathed for 15–30 min. in an enzyme-free Cell Dissociation Buffer (e.g. use 8 mL Hank's Based, Gibco Cat. # 13150-016 per T-150 flask) until cells are loosened. The contents are transferred to centrifuge tubes (50 mL) kept in an ice bath. All subsequent steps are done at 4° C. The tubes are centrifuged at 300× g for 15 min (1380 rpm on SORVAL, Model RT6000D, using the rotor for 50 mL tubes). The supernatant is discarded and the cells suspended in homogeneizing buffer(10 mM Tris-HCl containing 0.25 M sucrose and 1 mM EDTA, pH 7.4) ensuring that the volume of the buffer is about ten times the volume of the cell pellet. The cells are pooled into a centrifuge tube (50 mL) and homogenized with a Polytron at setting 6 for 10 sec. The homogenate is transferred into a Potter-Elvjehm homogeneizer and homogenized with 3 strokes. The homogenate is centrifuged at 1500×g for 60 min at 4° C. (3100 rpm using SORVAL, model RT6000D, using the rotor for 50 mL tubes). The pellet is discarded. The supernatant is centrifuged at 100,000×g for 60 min. at 4° C. (Beckman L8-80M ultracentrifuge; spin at 37,500 rpm with rotor type 70 Ti for 50 mL tubes; 38,000 rpm with type 80Ti for 15 mL tubes; or 35,800 rpm with rotor type 45Ti). The supernantant is discarded and the pellet suspended in 3 to 4 mL of Tris buffer (50 mM TRIS-HCl, pH 7.4). The protein content is estimated by the Bradford or Lowry method. The volume of the membrane suspension is adjusted with the membrane buffer (50 mM Tris-HCl containing 0.1% BSA and 0.1 mM PMSF) to give 3.0 mg/mL (or as appropriate) of protein. The membranes are aliquoted and stored at −70° C. C. Radioligand Binding Assay: In wells of a 96-well format microtiter plate, is added 90, 110 or 130 μL (to make up a final volume of 200 μL) of assay buffer containing 50 mM of Tris-HCl (pH 7.4), […], 1 mg % aprotinin, 1 mg % leupeptin, 2 mg % 1,10-phenanthroline, 10 mg % trypsin inhibitor, and 0.1 mM PMSF. The inhibitors are added on the day of the experiment. […]

Chain of human V2 vasopressin receptor subtype (P30518 whole entry): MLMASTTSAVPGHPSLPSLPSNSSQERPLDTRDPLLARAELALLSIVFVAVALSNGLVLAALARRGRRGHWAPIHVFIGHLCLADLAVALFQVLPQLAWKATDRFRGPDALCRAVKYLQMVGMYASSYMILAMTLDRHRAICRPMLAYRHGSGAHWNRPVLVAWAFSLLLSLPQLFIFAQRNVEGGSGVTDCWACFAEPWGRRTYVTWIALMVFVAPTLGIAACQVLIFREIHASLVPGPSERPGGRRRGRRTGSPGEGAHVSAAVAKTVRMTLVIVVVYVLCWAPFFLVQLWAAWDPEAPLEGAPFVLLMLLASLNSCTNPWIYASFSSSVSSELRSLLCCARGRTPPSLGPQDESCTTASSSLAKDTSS

| SMILES | inhibition at 0.1 µM | V2 % inhibition at 100 nM |
| --- | --- | --- |
| COc1ccc(NC(=O)c2ccc3n2Cc2ccccc2N(C(=O)c2ccc(C4CCCCC4)cc2)C3)cc1 [Example 29, 10-(4-Cyclohexyl-benzoyl)-10,11-dihydro-5H-pyrrolo[2,1-c][1,4]benzodiazepine-3-carboxylic acid (4-methoxy-phenyl)-amide] | 8% |  |
| O=C(C(=O)N1CCC(N2CCCCC2)CC1)c1ccc2n1Cc1ccccc1N(C(=O)c1ccc(C3CCCCC3)cc1)C2 [Example 31, 1-[1.4′]Bipiperidinyl-1′-yl-2-[10-(4-cyclohexyl-benzoyl)-10,11-dihydro-5H-pyrrolo[2,1-c][1,4]benzodiazepin-3-yl]-ethane-1,2-dione] |  | 2% |
| CN(C)CCCNC(=O)c1ccc2n1Cc1ccccc1N(C(=O)c1ccc(C3CCCCC3)cc1)C2 [Example 33, 10-(4-Cyclohexyl-benzoyl)-N-[3-(dimethylamino)propyl]-10,11-dihydro-5H-pyrrolo[2,1-c][1,4]benzodiazepine-3-carboxamide] | 14% |  |
| CN(C)CCN(C)C(=O)c1ccc2n1Cc1ccccc1N(C(=O)c1ccc(C3CCCCC3)cc1)C2 [Example 34, 10-(4-Cyclohexyl-benzoyl)-N-[2-(dimethylamino)-ethyl]-N-methyl-10,11-dihydro-5H-pyrrolo[2,1-c][1,4]benzodiazepine-3-carboxamide] | 17% |  |
| CN(C)CCCN(C)C(=O)c1ccc2n1Cc1ccccc1N(C(=O)c1ccc(C3CCCCC3)cc1)C2 [Example 35, 10-(4-Cyclohexyl-benzoyl)-N-[3-(dimethylamino)propyl]N-methyl-10,11-dihydro-5H-pyrrolo[2,1-c][1,4]benzodiazepine-3-carboxamide] | 16% |  |
| O=C(NCCCn1ccnc1)c1ccc2n1Cc1ccccc1N(C(=O)c1ccc(C3CCCCC3)cc1)C2 [Example 36, 10-(4-Cyclohexyl-benzoyl)-N-[3-(1H-imidazol-1-yl)propyl]-10,11-dihydro-5H-pyrrolo[2,1-c][1,4]benzodiazepine-3-carboxamide] | 1% |  |
| O=C(NCCN1CCCCC1)c1ccc2n1Cc1ccccc1N(C(=O)c1ccc(C3CCCCC3)cc1)C2 [Example 37, 10-(4-Cyclohexyl-benzoyl)-N-[2-(1-piperidinyl)ethyl]-10,11-dihydro-5H-pyrrolo[2,1-c][1,4]benzodiazepine-3-carboxamide] | 8% |  |
| CN1CCCC1CCNC(=O)c1ccc2n1Cc1ccccc1N(C(=O)c1ccc(C3CCCCC3)cc1)C2 (stereo not drawn) [Example 38, 10-(4-Cyclohexyl-benzoyl)-N-[2-(1-methyl-2-pyrrolidinyl)ethyl]-10,11-dihydro-5H-pyrrolo[2,1-c][1,4]benzodiazepine-3-carboxamide] | 1% |  |
| CN1CCC(N(C)C(=O)c2ccc3n2Cc2ccccc2N(C(=O)c2ccc(C4CCCCC4)cc2)C3)CC1 [Example 39, 10-(4-Cyclohexyl-benzoyl)-N-methyl-N-(1-methyl-4-piperidinyl)-10,11-dihydro-5H-pyrrolo[2,1-c][1,4]benzodiazepine-3-carboxamide] | 13% |  |
| CN1CCC(N(C)C(=O)c2ccc3n2Cc2ccccc2N(C(=O)c2ccc(C4CCCCC4)cc2)C3)C1 (stereo not drawn) [Example 40, 10-(4-Cyclohexyl-benzoyl)-N-methyl-N-(1-methyl-3-pyrrolidinyl)-10,11-dihydro-5H-pyrrolo[2,1-c][1,4]benzodiazepine-3-carboxamide] | -3% |  |
| O=C(c1ccc2n1Cc1ccccc1N(C(=O)c1ccc(C3CCCCC3)cc1)C2)N1CCN(CCN2CCOCC2)CC1 [Example 42, [10(4-Cyclohexyl-benzoyl)-10,11-dihydro-5H-pyrrolo[2,1-c][1,4]benzodiazepin-3-yl]{4-[2-(4-morpholinyl)ethyl]-1-piperazinyl}methanone] | 4% |  |
| O=C(c1ccc(C2CCCCC2)cc1)N1Cc2ccc(C(=O)N3CCC[C@H]3CN3CCCC3)n2Cc2ccccc21 [Example 46, [10-(4-Cyclohexyl-benzoyl)-10,11-dihydro-5H-pyrrolo[2,1-c][1.4]benzodiazepin-3-yl][(2S)-2-(1-pyrrolidinylmethyl)pyrrolidinyl]methanone] |  | 14% |
| CN(C)[C@@H]1CCN(C(=O)c2ccc3n2Cc2ccccc2N(C(=O)c2ccc(C4CCCCC4)cc2)C3)C1 [Example 47, [10-(4-Cyclohexyl-benzoyl)-10,11-dihydro-5H-pyrrolo[2,1-C][1,4]benzodiazepin-3-yl][(3R)-3-(dimethylamino)pyrrolidinyl]methanone] |  | 0% |

Continued, values first:

| inhibition at 0.1 µM | V2 % inhibition at 100 nM | SMILES |
| --- | --- | --- |
| 9% |  | Cc1ccccc1N1CCN(C(=O)c2ccc3n2Cc2ccccc2N(C(=O)c2ccc(C4CCCCC4)cc2)C3)CC1 [Example 27, [10-(4-Cyclohexyl-benzoyl)-10,11-dihydro-5H-pyrrolo[2,1-c][1,4]benzodiazepin-3-yl][4-(2-methylphenyl)-1-piperazinyl]-methanone] |
| 15% |  | CN1CCCN(C(=O)c2ccc3n2Cc2ccccc2N(C(=O)c2ccc(C4CCCCC4)cc2)C3)CC1 [Example 30, [10-(4-Cyclohexyl-benzoyl)-10,11-dihydro-5H-pyrrolo[2,1-c][1,4]benzodiazepin-3-yl](4-methyl-[1,4]-diazepan-1-yl)-methanone] |
|  | 6% | CN1CCN(C(=O)C(=O)c2ccc3n2Cc2ccccc2N(C(=O)c2ccc(C4CCCCC4)cc2)C3)CC1 [Example 32, 1-[10-(4-Cyclohexyl-benzoyl)-10,11-dihydro-5H-pyrrolo[2,1-c][1,4]benzodiazepin-3-yl]-2-(4-methyl-1-piperazin-1-yl)-1,2-ethane-1,2-dione] |
| 6% |  | CN(C)CCN1CCN(C(=O)c2ccc3n2Cc2ccccc2N(C(=O)c2ccc(C4CCCCC4)cc2)C3)CC1 [Example 41, [10-(4-Cyclohexyl-benzoyl)-10,11-dihydro-5H-pyrrolo[2,1-c][1,4]benzodiazepin-3-yl]{4-[2-(dimethylamino)ethyl]-1-piperazinyl}methanone] |
| 8% |  | C=CCN1CCN(C(=O)c2ccc3n2Cc2ccccc2N(C(=O)c2ccc(C4CCCCC4)cc2)C3)CC1 [Example 43, (4-Allyl-1-piperazinyl)[10-(4-cyclohexyl-benzoyl)-10,11-dihydro-5H-pyrrolo[2,1-c][1,4]benzodiazepin-3-yl]methanone] |
| 1% |  | CC(C)N1CCN(C(=O)c2ccc3n2Cc2ccccc2N(C(=O)c2ccc(C4CCCCC4)cc2)C3)CC1 [Example 44, [10-(4-Cyclohexyl-benzoyl)-10,11-dihydro-5H-pyrrolo[2,1-c][1,4]benzodiazepin-3-yl](4-isopropyl-1-piperazinyl)methanone] |
| 10% |  | CN(C)CCCN1CCN(C(=O)c2ccc3n2Cc2ccccc2N(C(=O)c2ccc(C4CCCCC4)cc2)C3)CC1 [Example 45, [10-(4-Cyclohexyl-benzoyl)-10,11-dihydro-5H-pyrrolo[2,1-c][1,4]benzodiazepin-3-yl]{4-[3-(dimethylamino)propyl]-1-piperazinyl}methanone] |

Same assay, conditions: [3H]arginine vasopressin, value in parentheses

| IC50 | SMILES |
| --- | --- |
| > 1 µM | O=C(c1ccc2n1Cc1ccccc1N(C(=O)c1ccc(C3CCCCC3)cc1)C2)N1CCN(c2ccccn2)CC1 [Example 28, [10-(4-Cyclohexyl-benzoyl)-10,11-dihydro-5H-pyrrolo[2,1-c][1,4]benzodiazepine 3-yl][4-(2-pyridinyl)-1-piperazinyl]-methanone] |
